Laboratory results as given in patent publication US12472179B2, “Combination of a CBP/p300 bromodomain inhibitor and a KRAS inhibitor for the treatment of cancer” (TOLREMO THERAPEUTICS AG, priority 2020, dated 2025).
Entries after “also recorded” stand apart in the source; their conditions may differ.

How the values were obtained:
Assay type in all cases: cell-based
SNU-1411 cells [1] = experiment: Label-free determination of cell proliferation, SNU-1411 confluency, AMG510 (Example 6); conditions: for cell proliferation (SNU-1411 confluency), drug alone: SNU-1411 (KRAS G12C), 32 days, single drug: 1 μM Compound A, 0.2 μM Compound C, 0.2 μM CCS1477, 1 μM FT-6876, 0.2 μM GNE-781, 300 nM AMG510; for development of drug resistance / re-growth, combined with AMG510: CBP/p300 bromodomain inhibitor combined with 300 nM AMG510
Protocol: (§1) 2000 SNU-1411 cells [KCLB; 01411, a CRC (rectal adenocarcinoma) cell line carrying a KRAS G12C mutation], were seeded into 96 well plates (Greiner BioOne 655090) one day prior to drug treatment in RPMI medium containing 10% FCS and 2 mM L-Glutamine. The next day, the wells were imaged label-free using brightfield imaging on a CELIGO Image Cytometer to determine the initial cell confluency. […] Plates were regularly imaged over weeks using brightfield mode (CELIGO Imaging Cytometer) to track cell confluency in each well over time. Growth medium and treatments were replenished twice weekly. […] Confluency was determined using CELIGO software's built-in “confluence” analysis tool in the brightfield mode.

SW837 cells = experiment: Label-free determination of cell proliferation, SW837 confluency, AMG510 (Example 8); conditions: for cell proliferation (SW837 confluency), drug alone: SW837 (KRAS G12C), 49 days, single drug: 1 μM Compound A, 0.2 μM Compound C, 0.2 μM CCS1477, 1 μM FT-6876, 0.2 μM GNE-781, 100 nM AMG510; for development of drug resistance / re-growth, combined with AMG510: CBP/p300 bromodomain inhibitor combined with 100 nM AMG510
Protocol: 2000 SW837 cells [ATCC; CCL-235, a CRC (rectal adenocarcinoma) cell line carrying a KRAS G12C mutation], were seeded into 96 well plates (Greiner BioOne 655090) one day prior to drug treatment in RPMI medium containing 10% FCS and 2 mM L-Glutamine. The next day, the wells were imaged label-free using brightfield imaging on a CELIGO Image Cytometer to determine the initial cell confluency. […] Plates were regularly imaged over weeks using brightfield mode (CELIGO Imaging Cytometer) to track cell confluency in each well over time. Growth medium and treatments were replenished twice weekly. […] Confluency was determined using CELIGO software's built-in “confluence” analysis tool in the brightfield mode.

NCI-H358 cells = experiment: Label-free determination of cell proliferation, NCI-H358 cell number, AMG510 (Example 9)
Protocol: 2000 NCI-H358 cells [KCLB; 25807; a non-small cell lung cancer (NSCLC) cell line with KRAS G12C mutation] were seeded into 96 well plates (Greiner BioOne 655090) one day prior to drug treatment in RPMI medium containing 10% FCS and 2 mM L-Glutamine. The next day, the wells were imaged label-free using brightfield imaging on a CELIGO ImageCytometer to determine the initial cell number. […] The cells were regularly imaged over weeks using brightfield mode (CELIGO Imaging Cytometer) to track cell proliferation in each well over time. Growth medium and treatments were replenished twice weekly. […] Cell numbers were determined using CELIGO software's built-in “direct cell counting” analysis tool in the brightfield mode.

SNU-1411 cells [2] = experiment: Label-free determination of cell proliferation, SNU-1411 confluency, MRTX849 (Example 7); conditions: for cell proliferation (SNU-1411 confluency), drug alone: SNU-1411 (KRAS G12C), 32 days, single drug: 1 μM Compound A, 0.2 μM Compound C, 0.2 μM CCS1477, 1 μM FT-6876, 0.2 μM GNE-781, 300 nM MRTX849; for development of drug resistance / re-growth, combined with MRTX849: SNU-1411, 32 days, CBP/p300 bromodomain inhibitor combined with 300 nM MRTX849
Protocol: as §1

Row | SMILES | cell proliferation (SNU-1411 confluency), drug alone (SNU-1411 cells [1]) | re-growth in long-term culture, AMG510 alone (SNU-1411 cells [1]; SNU-1411, 32 days, 300 nM AMG510 alone) | cell proliferation (SW837 confluency), drug alone (SW837 cells) | re-growth in long-term culture, AMG510 alone (SW837 cells; SW837, 49 days, 100 nM AMG510 alone) | cell proliferation (NCI-H358 cell number), drug alone (NCI-H358 cells; NCI-H358 (KRAS G12C), >20 days, single drug: 1 μM Compound A, 200 nM Compound C, 100 nM AMG510) | re-growth in long-term culture, AMG510 alone (NCI-H358 cells; NCI-H358, >20 days, 100 nM AMG510 alone) | development of drug resistance / re-growth, combined with AMG510 (SNU-1411 cells [1]; SNU-1411, 32 days) | cell proliferation (SNU-1411 confluency), drug alone (SNU-1411 cells [2]) | development of drug resistance / re-growth, combined with MRTX849 (SNU-1411 cells [2]) | development of drug resistance / re-growth, combined with AMG510 (SW837 cells; SW837, 49 days) | development of drug resistance / re-growth, combined with AMG510 (NCI-H358 cells; NCI-H358, >20 days, 1 μM Compound A or 200 nM Compound C combined with 100 nM AMG510)
1 | C=CC(=O)N1CCN(c2nc(=O)n(-c3c(C)ccnc3C(C)C)c3nc(-c4c(O)cccc4F)c(F)cc23)[C@@H](C)C1 [AMG510] | delayed cell proliferation initially for few days | re-grew | initially prevented cell proliferation | re-grew | initially completely blocked cell proliferation | re-grew |  |  |  |  | 
2 | CNC(=O)N1CCc2c(c(N3CCCc4cc(-c5cnn(C)c5)c(C(F)F)cc43)nn2C2CCOCC2)C1 [GNE-781] | do not affect cell proliferation |  | do not affect cell proliferation |  |  |  | prevent the development of drug resistance | do not affect cell proliferation | prevent the development of drug resistance | prevent the development of drug resistance | 
3 | CC(=O)N1C[C@H](c2nc(Nc3cccc(-c4cn(C)nn4)c3)cc(-c3cnccn3)n2)CC[C@@H]1C [Compound C, 1-((2S,5R)-2-methyl-5-(4-((3-(1-methyl-1H-1,2,3-triazol-4-yl)phenyl)amino)-6-(pyrazin-2-yl)pyrimidin-2-yl)piperidin-1-yl)ethan-1-one] |  |  |  |  |  |  | prevent the development of drug resistance |  | prevent the development of drug resistance | prevent the development of drug resistance | prevent the development of drug resistance; also recorded: completely prevented re-growth
4 | COC(=O)N1c2ccc3c(nc(Cc4ccccc4)n3[C@H]3CCC[C@H](C(=O)O)C3)c2CC[C@@H]1C [FT-6876] | do not affect cell proliferation |  | do not affect cell proliferation |  |  |  | prevent the development of drug resistance | do not affect cell proliferation | prevent the development of drug resistance | prevent the development of drug resistance | 
5 | CO[C@H]1CC[C@H](n2c([C@@H]3CCCC(=O)N3c3ccc(F)c(F)c3)nc3cc(-c4c(C)noc4C)ccc32)CC1 [CCS1477] | do not affect cell proliferation |  | do not affect cell proliferation |  |  |  | prevent the development of drug resistance | do not affect cell proliferation | prevent the development of drug resistance | prevent the development of drug resistance | 
